Assay results reported in patent US8633243B2, “Forms of CDDO methyl ester” (priority 2007, dated 2014).
Marks after values point to notes of the source that are not given here.

Tests used:
[1] = Stress experiments (physical stability under temperature, humidity, grinding; XRPD after stress); format: physicochemical; conditions: for KF Result after stress: Karl Fischer water; for weight loss under stress: 3 days
Protocol: A solid sample was placed into a stainless steel milling rotor with a small metal ball. […] The sample was then ground at 30 Hz on a Retesh type MM220 mixermill for approximately 20 minutes. The resulting solids were isolated and analyzed.
A solid sample was placed into a stainless steel grinding jar with a grinding rod. The sample was then ground at 15 Hz on a SPEX Certiprep model 6750 cryomill for a set amount of time. The grinding jar was submerged in a bath of liquid nitrogen during the experiment. The solids were isolated and analyzed.
Solids were stressed under different temperature and/or relative humidity (RH) environments for a measured time period. Specific RH values were achieved by placing the samples inside sealed chambers containing saturated salt solutions or inside ESPEC temperature and humidity cabinets. The salt solutions were selected and prepared following an ASTM standard procedure. Samples were analyzed by XRPD immediately after removal from the stress environment. […]

[2] = cynomolgus monkey, in vivo, po, 4.1 mg/kg
[3] = Hygroscopicity (dynamic vapor sorption/desorption); format: physicochemical
Protocol: Moisture sorption/desorption data were collected on a VTI SGA-100 Vapor Sorption Analyzer. Sorption and desorption data were collected over a range of 5% to 95% relative humidity (RH) at 10% RH intervals under a nitrogen purge. Samples were not dried prior to analysis. Equilibrium criteria used for analysis were less than 0.010% weight change in 5 minutes, with a maximum equilibration time of 3 hours if the weight criterion was not met. Data were not corrected for the initial moisture content of the samples. Sodium chloride and polyvinypyrrolidine were used as calibration standards.

[4] = Phases 2 and 3: single oral administration of CDDO-methyl ester capsule formulations, concentrations by HPLC-MS/MS; format: in vivo, Cynomolgus monkeys, Macaca fascicularis; conditions: phases 2 and 3, PO capsule 10 mg/kg; compared with the micronized and nanocrystalline Form A formulations
Protocol: An aqueous suspension of nanocrystalline CDDO-Me was produced, starting from a sample of micronized Form A material. A Retsch® Planatory Ball Mill model PM 400, containing zirconia balls of 2 mm average size, was charged with 25 gm of micronized CDDO-Me (average particle size distribution of 6.1 uM), 5 gm of docusate sodium, 1 gm of Tween 80, and 68.3 gm of water. Grinding was initiated at approximately 400 RPM and was continued for 2 hours. A particle size distribution (PSD) determination using a laser light granulometer indicated an average PSD of 0.37 μM was obtained. To this thick suspension were added 1 gm of microcrystalline cellulose and 0.2 gm of […] gum, with brief mixing, and the suspension was stored refrigerated. […] The table below presents the quantitative composition of both formulations. […] The quantitative composition of each formulation appears below. […] Serial blood samples (approximately 1 mL) were removed from the femoral vein or artery of each animal and transferred into tubes containing K2-EDTA at each of the following time points (actual times were recorded): All samples were thoroughly mixed following collection and placed on wet ice, prior to being refrigerated at approximately 4° C. CDDO-methyl ester concentrations in blood were analysed by HPLC-MS/MS.

[5] = 25° C./75% RH, 28 d, micronized
[6] = 40° C./48% RH, 28 d, micronized
[7] = 60° C./23% RH, 28 d, micronized

Structure (SMILES) | XRPD RESULT after stress [1, 5] | KF Result after stress [1, 5] [%] | XRPD RESULT after stress [1, 6] | KF Result after stress [1, 6] | XRPD RESULT after stress [1, 7] | KF Result after stress [1, 7] [%] | XRPD RESULT after stress ([1]; 80° C./P2O5, 28 d, micronized) | KF Result after stress ([1]; 80° C./P2O5, 28 d, micronized) [%] | AUC, Mean [2] [ng·h/mL] | AUC, Median [2] [ng·h/mL] | AUC, Range (min-max) [2] [ng·h/mL] | hygroscopicity [3] | also measured
COC(=O)[C@]12CCC(C)(C)C[C@H]1[C@H]1C(=O)C=C3[C@@]4(C)C=C(C#N)C(=O)C(C)(C)[C@@H]4CC[C@@]3(C)[C@]1(C)CC2 [FORM B PRODUCED BY ISOLATION FROM ETHYL ACETATE AND ETHANOL ] | Form B | 0.58 | Form B | 0.39% | ~50% Form A + | 0.02 | 100% Form A | 0.37 | – | – | – | – | form after stress testing (summary of Table 15) ([1]; 28 days of storage, Form A seen at 60° C. and above): formation of Form A
COC(=O)[C@]12CCC(C)(C)C[C@H]1[C@H]1C(=O)C=C3[C@@]4(C)C=C(C#N)C(=O)C(C)(C)[C@@H]4CC[C@@]3(C)[C@]1(C)CC2 [FORM B PRODUCED VIA EXAMPLE 11 PROCEDURE] | Form B | 0.77 | Form B | 0.00^b | Form B | 0.04 | Form B | 1.1 | – | – | – | – | XRPD RESULT after stress ([1]; 25° C./75% RH, 14 d, micronized): Form B; XRPD RESULT after stress ([1]; 80° C./P2O5, 14 d, micronized): Form B
COC(=O)C12CCC(C)(C)CC1C1C(=O)C=C3C4(C)C=C(C#N)C(=O)C(C)(C)C4CCC3(C)C1(C)CC2 (stereo not shown) [Form A, methyl 2-cyano-3,12-dioxoleana-1,9(11)-dien-28-oate] | – | – | – | – | – | – | – | – | 40.4 | 37.4 | 21 to 60.4 | not hygroscopic | MB / DVS weight change ([3]; 5% to 95% RH sorption/desorption): Negligible weight change throughout experiment; Post MB XRPD ([3]; material after DVS experiment): Form A; weight loss under stress ([1]; 25° C./60% RH): 3 days: 1.5% loss; XRPD RESULT after stress ([1]; 25° C./60% RH, 7 days): remained Form A; weight loss under stress ([1]; 40° C./75% RH): 3 days: 1.4% loss; XRPD RESULT after stress ([1]; 40° C./75% RH, 7 days): remained Form A; XRPD RESULT after stress ([1]; 20 min grind, dry (ball mill)): remained Form A; XRPD RESULT after stress ([1]; 20 min wet grind, water (ball mill)): remained Form A
COC(=O)C12CCC(C)(C)CC1C1C(=O)C=C3C4(C)C=C(C#N)C(=O)C(C)(C)C4CCC3(C)C1(C)CC2 (stereo not shown) [Form B, methyl 2-cyano-3,12-dioxoleana-1,9(11)-dien-28-oate] | – | – | – | – | – | – | – | – | 177.2 | 175.0 | 158 to 228 | not hygroscopic | bioavailability, comparison of formulations [4]: significantly better bioavailability; % Form B over Form A (AUC), Mean [2]: 439%; % Form B over Form A (AUC), Median [2]: 523%; % Form B over Form A (AUC), Range (min-max) [2]: 262-723%; median exposure greater than the equivalent dose of Form A [2]: approximately 520%; XRPD RESULT after stress ([1]; 22° C./97% RH, 7 days): remained Form B; XRPD RESULT after stress ([1]; 40° C./75% RH, 8 days): remained Form B; XRPD RESULT after stress ([1]; 80° C./0% RH, ~24 hours): remained Form B; XRPD RESULT after stress ([1]; 195° C., 5 minutes, ambient RH (74% RH)): remained Form B; XRPD RESULT after stress ([1]; 200° C., 60 minutes, ambient RH (74% RH), min = minor): Form A plus minor Form B; form after cryogrinding ([1]; cryogrinding 1 hour): stable and does not change Form
